Assay results as given in patent publication US12304890B2, “R-type pyridyloxycarboxylic acid, salt and ester derivative thereof, and preparation method therefor, and herbicidal composition and application thereof” (Qingdao Kingagroot Chemical Compound Co., Ltd., priority 2018, dated 2025).

Experiments:
Type in all cases: in vivo
Digitaria sanguinalis = assay: Post-emergence test experiment, Digitaria sanguinalis; settings: 1000 g a.i./ha, 3 weeks in greenhouse, fresh weight inhibition
Method in brief: (§1)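 Greenhouse post-emergence spray at 2-3 leaf stage (2 wk after sowing); acetone/tween-80 formulation, methyl oleate EC synergist 1.5 L/ha, water-diluted. Plants held 3 wk, then fresh weight inhibition rate read.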

Echinochloa crusgalli = assay: Post-emergence test experiment, Echinochloa crusgalli; settings: 1000 g a.i./ha, 3 weeks in greenhouse, fresh weight inhibition
Method in brief: as §1

[1] = tested on: Monocotyledonous and dicotyledonous weed seeds and main crop seeds; assay: Post-emergence test experiment, other weeds and crops (Table 4, 1000 g a.i./ha); settings: 3 weeks in greenhouse, fresh weight inhibition
Method in brief: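 Growth inhibition is scored on fresh weight. Spray solutions were made in acetone with tween-80, diluted in water, plus 1.5 L/ha methyl oleate emulsible concentrate. Plants from greenhouse-grown weed and crop seeds were treated post-emergence at 2-3 leaves, 2 weeks after sowing.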

Structure (SMILES)	Activity level (growth inhibition rate), Digitaria sanguinalis (Digitaria sanguinalis)	Activity level (growth inhibition rate), Echinochloa crusgalli (Echinochloa crusgalli)	Activity level (growth inhibition rate), Abutilon theophrasti Medic. [1]	Activity level (growth inhibition rate), Galium aparine [1]	Activity level (growth inhibition rate), Monochoria Vaginalis [1]
Cc1ccccc1COC(=O)C(C)Oc1nc(F)c(Cl)c(N)c1Cl (centres unmarked) [Compound 2-302]	5 (Level 5: the growth inhibition rate is greater than 85%)	5 (Level 5: the growth inhibition rate is greater than 85%)	5 (Level 5: the growth inhibition rate is greater than 85%)	5 (Level 5: the growth inhibition rate is greater than 85%)	5 (Level 5: the growth inhibition rate is greater than 85%)
CCCCC(CC)COC(=O)[C@@H](C)Oc1nc(F)c(Cl)c(N)c1Cl (some centres unmarked) [Compound 2-157]	5 (Level 5: the growth inhibition rate is greater than 85%)	5 (Level 5: the growth inhibition rate is greater than 85%)	5 (Level 5: the growth inhibition rate is greater than 85%)	5 (Level 5: the growth inhibition rate is greater than 85%)	5 (Level 5: the growth inhibition rate is greater than 85%)
Cc1ccc(CSC(=O)C(C)Oc2nc(F)c(Cl)c(N)c2Cl)cc1 (centres unmarked) [Compound 2-307]	5 (Level 5: the growth inhibition rate is greater than 85%)	5 (Level 5: the growth inhibition rate is greater than 85%)	5 (Level 5: the growth inhibition rate is greater than 85%)	5 (Level 5: the growth inhibition rate is greater than 85%)	5 (Level 5: the growth inhibition rate is greater than 85%)
CC(Oc1nc(F)c(Cl)c(N)c1Cl)C(=O)OCC=CCl (centres unmarked) [Compound 2-285]	5 (Level 5: the growth inhibition rate is greater than 85%)	5 (Level 5: the growth inhibition rate is greater than 85%)	5 (Level 5: the growth inhibition rate is greater than 85%)	5 (Level 5: the growth inhibition rate is greater than 85%)	5 (Level 5: the growth inhibition rate is greater than 85%)
C[C@@H](Oc1nc(F)c(Cl)c(N)c1Cl)C(=O)OCC(C)(C)C [Compound 2-91]	5 (Level 5: the growth inhibition rate is greater than 85%)	5 (Level 5: the growth inhibition rate is greater than 85%)	5 (Level 5: the growth inhibition rate is greater than 85%)	5 (Level 5: the growth inhibition rate is greater than 85%)	5 (Level 5: the growth inhibition rate is greater than 85%)
CC(Oc1nc(F)c(Cl)c(N)c1Cl)C(=O)SCc1ccccc1F (centres unmarked) [Compound 2-309]	5 (Level 5: the growth inhibition rate is greater than 85%)	5 (Level 5: the growth inhibition rate is greater than 85%)	5 (Level 5: the growth inhibition rate is greater than 85%)	5 (Level 5: the growth inhibition rate is greater than 85%)	5 (Level 5: the growth inhibition rate is greater than 85%)
CC(C)CCOC(=O)[C@@H](C)Oc1nc(F)c(Cl)c(N)c1Cl [Compound 2-89]	5 (Level 5: the growth inhibition rate is greater than 85%)	5 (Level 5: the growth inhibition rate is greater than 85%)	5 (Level 5: the growth inhibition rate is greater than 85%)	5 (Level 5: the growth inhibition rate is greater than 85%)	5 (Level 5: the growth inhibition rate is greater than 85%)
CC(Oc1nc(F)c(Cl)c(N)c1Cl)C(=O)Sc1cccc(C(C)C)c1 (centres unmarked) [Compound 2-360]	5 (Level 5: the growth inhibition rate is greater than 85%)	5 (Level 5: the growth inhibition rate is greater than 85%)	5 (Level 5: the growth inhibition rate is greater than 85%)	5 (Level 5: the growth inhibition rate is greater than 85%)	5 (Level 5: the growth inhibition rate is greater than 85%)
CCC(C)CCOC(=O)[C@@H](C)Oc1nc(F)c(Cl)c(N)c1Cl (some centres unmarked) [Compound 2-105]	5 (Level 5: the growth inhibition rate is greater than 85%)	5 (Level 5: the growth inhibition rate is greater than 85%)	5 (Level 5: the growth inhibition rate is greater than 85%)	5 (Level 5: the growth inhibition rate is greater than 85%)	5 (Level 5: the growth inhibition rate is greater than 85%)
CCNc1c(Cl)c(F)nc(O[C@H](C)C(=O)SC)c1Cl [Compound 2-376]	5 (Level 5: the growth inhibition rate is greater than 85%)	5 (Level 5: the growth inhibition rate is greater than 85%)	5 (Level 5: the growth inhibition rate is greater than 85%)	5 (Level 5: the growth inhibition rate is greater than 85%)	5 (Level 5: the growth inhibition rate is greater than 85%)
CC(C)CCCCCSC(=O)[C@@H](C)Oc1nc(F)c(Cl)c(N)c1Cl [Compound 2-160]	5 (Level 5: the growth inhibition rate is greater than 85%)	5 (Level 5: the growth inhibition rate is greater than 85%)	5 (Level 5: the growth inhibition rate is greater than 85%)	5 (Level 5: the growth inhibition rate is greater than 85%)	5 (Level 5: the growth inhibition rate is greater than 85%)
CC(Oc1nc(F)c(Cl)c(N)c1Cl)C(=O)OCC(Cl)=C(Cl)Cl (centres unmarked) [Compound 2-286]	5 (Level 5: the growth inhibition rate is greater than 85%)	5 (Level 5: the growth inhibition rate is greater than 85%)	5 (Level 5: the growth inhibition rate is greater than 85%)	5 (Level 5: the growth inhibition rate is greater than 85%)	5 (Level 5: the growth inhibition rate is greater than 85%)
CCCCC(C)SC(=O)[C@@H](C)Oc1nc(F)c(Cl)c(N)c1Cl (some centres unmarked) [Compound 2-114]	5 (Level 5: the growth inhibition rate is greater than 85%)	5 (Level 5: the growth inhibition rate is greater than 85%)	5 (Level 5: the growth inhibition rate is greater than 85%)	5 (Level 5: the growth inhibition rate is greater than 85%)	5 (Level 5: the growth inhibition rate is greater than 85%)
C[C@@H](Oc1nc(F)c(Cl)c(N)c1Cl)C(=O)SC(N)=O [Compound 2-373]	5 (Level 5: the growth inhibition rate is greater than 85%)	5 (Level 5: the growth inhibition rate is greater than 85%)	5 (Level 5: the growth inhibition rate is greater than 85%)	5 (Level 5: the growth inhibition rate is greater than 85%)	5 (Level 5: the growth inhibition rate is greater than 85%)
CC(Oc1nc(F)c(Cl)c(N)c1Cl)C(=O)OCc1cccc(F)c1 (centres unmarked) [Compound 2-310]	5 (Level 5: the growth inhibition rate is greater than 85%)	5 (Level 5: the growth inhibition rate is greater than 85%)	5 (Level 5: the growth inhibition rate is greater than 85%)	5 (Level 5: the growth inhibition rate is greater than 85%)	5 (Level 5: the growth inhibition rate is greater than 85%)
CC(Oc1nc(F)c(Cl)c(N)c1Cl)C(=O)OCc1ccccc1Cl (centres unmarked) [Compound 2-314]	5 (Level 5: the growth inhibition rate is greater than 85%)	5 (Level 5: the growth inhibition rate is greater than 85%)	5 (Level 5: the growth inhibition rate is greater than 85%)	5 (Level 5: the growth inhibition rate is greater than 85%)	5 (Level 5: the growth inhibition rate is greater than 85%)
